Test results from paper PMC9115581, “Synthesis and Biological Evaluations of Betulinic Acid Derivatives With Inhibitory Activity on Hyaluronidase and Anti-Inflammatory Effects Against Hyaluronic Acid Fragment Induced Inflammation” (Frontiers in Chemistry, 2022).

Columns and labels:
[1] = tested on: LPS-stimulated RAW264.7 cells; assay: NO production (Griess assay) in LPS-stimulated RAW264.7 cells; type: cell-based, murine; settings: for Reduction of LPS-stimulated NO production: 10 μM, LPS 1 μg/mL; for Decrease of NO production as compared to parent compound BA: LPS-stimulated
Description: (§1) NO concentration was determined by the Griess assay according to a previous report ([Ma et al., 2016]), RAW264.7 and BV-2 cells (20,000 cells per well) were plated into 96-well plates. After an incubation period of 24 h, the cells were pre-treated with BA derivatives for 2 h and were co-treated with LPS (1 μg/mL) for 24 h. For the LMWHAFs-induced inflammation assay, THP-1 cells were pre-treated with BA derivatives for 2 h and then treated with LPS (1 μg/mL) and HA fragment (a hyaluronan oligosaccharide 6mer; 50 μg/mL) from Amsbio (Rockville, MD, United States; product code: CSR-11002) for 24 h ([Campo et al., 2012]; [Scuruchi et al., 2016]). Subsequently, the culture medium was mixed with the Griess reagent in a 1:1 ratio followed by a 15 min incubation in the dark. An absorbance value was measured at 540 nm using a Spectramax M2 microplate reader, and the NO concentration was calculated based on the standard NO curve.

[2] = Cell viability of BV-2 cells; type: cell-based, murine; settings: mouse, BV2 cells
Description: The cytotoxicity of each compound was determined in BV-2 and RAW264.7 cells with the MTT assay ([Li et al., 2020]). Briefly, cells were seeded in 96-well plates at 20,000 cells per well. Cells were allowed to adhere for 24 h. BA derivatives were prepared to 100 mM in DMSO, then diluted in serum-free media to yield concentrations of 10 µM. After the treatment of the cells with BA derivatives for 2 h, the cells were incubated in the absence or presence of LPS (1 μg/mL) for 24 h. Cellular viability was determined as a percentage of control (DMSO) by using a Cell Proliferation Kit II (Promega, Madison, WI, United States). XTT reagent (0.3 mg/mL) was then added to each well and incubated for 4 h at 37°C and an absorbance value was measured at 492 nm using a Spectramax M2 microplate reader ([Hayon et al., 2003]).

[3] = tested on: LPS-stimulated BV2 cells; assay: NO production (Griess assay) in LPS-stimulated BV2 cells; type: cell-based, murine; settings: Mus musculus, BV-2, LPS 1 μg/mL
Description: as §1

[4] = tested on: HA fragment-stimulated THP-1 cells; assay: NO production in HA fragment (LMWHAFs) stimulated THP-1 cells; type: cell-based, human; settings: 10 μM, HA fragment 6mer 50 μg/mL
Description: as §1

[5] = tested on: LPS-stimulated THP-1 cells; assay: IL-6 by ELISA in LPS-stimulated THP-1 cells; type: cell-based, human; settings: 10 μM, LPS alone 695.6 pg/mL
Description: To evaluate the effect of BA derivatives on LPS-induced IL-6 secretion, THP-1 monocytes were seeded at a density of 50,000 cells per well in a 48-well plate and differentiated with PMA (25 ng/mL), pre-treated with the BA derivatives at concentrations of 10 μM was performed for 6 h followed by stimulation with or without 1 μg/mL LPS for 12 h. The cell culture supernatant was collected for the measurement of IL-6. The levels of IL-6 were determined using specific ELISA kits (BioLegend, San Diego, CA, United States) ([Liu et al., 2020]).

Structure (SMILES): C=C(C)[C@@H]1CC[C@]2(C(=O)O)CC[C@]3(C)[C@H](CC[C@@H]4[C@@]5(C)CC[C@H](O)C(C)(C)[C@@H]5CC[C@]43C)[C@@H]12 [BA, betulinic acid]
- Reduction of LPS-stimulated NO production [1]: 20.4%
- viability at 10 µM [2]: 110%
- inhibition at 10 µM [3]: 3.4%
- Reduction of LMWHAF-stimulated NO production [4]: 12.4%
- LPS-induced secretion of IL-6 [5]: 613.3 pg/mL

Structure (SMILES): C=C(C)[C@@H]1CC[C@]2(C(=O)O)CC[C@]3(C)[C@H](CC[C@@H]4[C@@]5(C)C/C(=C\c6ccccc6Br)C(=O)C(C)(C)[C@@H]5CC[C@]43C)[C@@H]12 [BA-02, (1R,3aS,5aR,5bR,7aR,11aR,11bR,13aR,13bR)-10-((E)-2-bromobenzylidene)-5a,5b,8,8,11a-pentamethyl-9-oxo-1-(prop-1-en-2-yl)icosahydro-3aH-cyclopenta[a]chrysene-3a-carboxylic acid]
- LPS-induced secretion of IL-6 [5]: 586.6 pg/mL

Structure (SMILES): C=C(C)[C@@H]1CC[C@]2(C(=O)O)CC[C@]3(C)[C@H](CC[C@@H]4[C@@]5(C)C/C(=C\c6cc(OC)ccc6[N+](=O)[O-])C(=O)C(C)(C)[C@@H]5CC[C@]43C)[C@@H]12 [BA-03, (1R,3aS,5aR,5bR,7aR,11aR,11bR,13aR,13bR)-10-((E)-5-methoxy-2-nitrobenzylidene)-5a,5b,8,8,11a-pentamethyl-9-oxo-1-(prop-1-en-2-yl)icosahydro-3aH-cyclopenta[a]chrysene-3a-carboxylic acid]
- Reduction of LPS-stimulated NO production [1]: 42.9%
- Decrease of NO production as compared to parent compound BA [1]: 2.3 fold
- LPS-induced secretion of IL-6 [5]: 586.0 pg/mL

Structure (SMILES): C=C(C)[C@@H]1CC[C@]2(C(=O)O)CC[C@]3(C)[C@H](CC[C@@H]4[C@@]5(C)C/C(=C\c6cc(F)ccc6[N+](=O)[O-])C(=O)C(C)(C)[C@@H]5CC[C@]43C)[C@@H]12 [BA-04, (1R,3aS,5aR,5bR,7aR,11aR,11bR,13aR,13bR)-10-((E)-5-fluoro-2-nitrobenzylidene)-5a,5b,8,8,11a-pentamethyl-9-oxo-1-(prop-1-en-2-yl)icosahydro-3aH-cyclopenta[a]chrysene-3a-carboxylic acid]
- Reduction of LPS-stimulated NO production [1]: 32.3%
- LPS-induced secretion of IL-6 [5]: 539.6 pg/mL

Structure (SMILES): C=C(C)[C@@H]1CC[C@]2(C(=O)O)CC[C@]3(C)[C@H](CC[C@@H]4[C@@]5(C)C/C(=C\c6ccccc6OC)C(=O)C(C)(C)[C@@H]5CC[C@]43C)[C@@H]12 [BA-05, (1R,3aS,5aR,5bR,7aR,11aR,11bR,13aR,13bR)-10-((E)-2-methoxybenzylidene)-5a,5b,8,8,11a-pentamethyl-9-oxo-1-(prop-1-en-2-yl)icosahydro-3aH-cyclopenta[a]chrysene-3a-carboxylic acid]
- Reduction of LPS-stimulated NO production [1]: 38.5%
- LPS-induced secretion of IL-6 [5]: 589.8 pg/mL

Structure (SMILES): C=C(C)[C@@H]1CC[C@]2(C(=O)O)CC[C@]3(C)[C@H](CC[C@@H]4[C@@]5(C)C/C(=C\c6cccc(OC)c6)C(=O)C(C)(C)[C@@H]5CC[C@]43C)[C@@H]12 [BA-09]
- inhibition at 10 µM [3]: 36%

Structure (SMILES): C=C(C)[C@@H]1CC[C@]2(C(=O)O)CC[C@]3(C)[C@H](CC[C@@H]4[C@@]5(C)C/C(=C\c6cccc(C(F)(F)F)c6)C(=O)C(C)(C)[C@@H]5CC[C@]43C)[C@@H]12 [BA-11, (1R,3aS,5aR,5bR,7aR,11aR,11bR,13aR,13bR)-5a,5b,8,8,11a-pentamethyl-9-oxo-1-(prop-1-en-2-yl)-10-((E)-3-(trifluoromethyl)benzylidene)icosahydro-3aH-cyclopenta[a]chrysene-3a-carboxylic acid]
- Reduction of LPS-stimulated NO production [1]: 33.4%
- inhibition at 10 µM [3]: 7.7%
- Reduction of LMWHAF-stimulated NO production [4]: 11.3%

Structure (SMILES): C=C(C)[C@@H]1CC[C@]2(C(=O)O)CC[C@]3(C)[C@H](CC[C@@H]4[C@@]5(C)C/C(=C\c6ccc(OC)cc6)C(=O)C(C)(C)[C@@H]5CC[C@]43C)[C@@H]12 [BA-13, (1R,3aS,5aR,5bR,7aR,11aR,11bR,13aR,13bR)-10-((E)-4-methoxybenzylidene)-5a,5b,8,8,11a-pentamethyl-9-oxo-1-(prop-1-en-2-yl)icosahydro-3aH-cyclopenta[a]chrysene-3a-carboxylic acid]
- Reduction of LPS-stimulated NO production [1]: 46.4%
- Decrease of NO production as compared to parent compound BA [1]: 2.1 fold
- inhibition at 10 µM [3]: 33.6%
- Reduction of LMWHAF-stimulated NO production [4]: 35.6%
